One experiment deals with cNOS. The experiment in a line: Activation of constitutive NOS by nucleotide ligands. The experiment is classed as biochemical. How it is done: The effect of 2′AMP on the optical spectra of reductase cofactors in eNOS was also examined for eNOS as isolated and reduced with 1 mM NADPH. eNOS only, eNOS NADPH, eNOS NADPH with 2′AMP, eNOS NADPH with 2′AMP and CAM, and NADPH 2′AMP were compared.
(§1) Nitric Oxide production was assayed using the Griess assay as adapted for microtiter plates (Gross, S. S. (1996) Methods Enzymol. 268:159-68); calcium dependence was measured using EDTA as a Ca+2 buffer system. […] NADPH-dependent cytochrome c reduction was measured spectrophotometrically as described by McMillan et al (McMillan, K., et al., (1992) Proc Nat. Acad. Sci. U.S.A. 89, 11141-11145), adapted to 96-well plate microtiter plates. In each well, the […] reaction mixture contained 50 mM Na+ TRIS buffer, pH 7.5, 50 uM EDTA, 50 uM NADPH, 50 uM horse heart cytochrome c, and ˜10 nM of nNOS. Cytochrome c reduction was monitored at 550 nm (ε=2.1×104/M). In Cam/Ca+2 dependence studies, 0.75 uM CaCl2 and […] calmodulin were added to reaction mixtures. Assays were performed on a SpectraMAX plate reader (Molecular Devices).

Experiment [1] deals with nNOS. The experiment in a line: Nitrite production (Griess) of wild type and mutant nNOS enzymes. The experiment is classed as biochemical, rat. Particulars: activity of the enzyme preparation, based on heme content. As for the experimental part:
Expression and purification of wild type and mutant bovine eNOS and rat nNOS. Expression and purification of bovine eNOS and rat nNOS were performed using procedures similar to those previously described (Martasek, P.,et al., (1996) Biochem Biophys Res Commun. 219(2); 359-65). Transformed cells were broken with a French press, and after centrifugation to remove cell debris the supernatant was loaded on a 2′5′ADP affinity column, washed, and eluted with 2′AMP as described (id). High purity preparations can be obtained with a size exclusion step; we used a Superose 6 HR 10/30 column (Pharmacia Biotech AB, Uppsala, Sweden), flow rate 0.4 mL/min, buffer composition −50 mM Tris-HCl, pH 7.5, 0.1 mM EDTA, 1 mM-mercaptoethanol, 100 mM NaCl, 10% glycerol (vol/vol). During the purification procedure BH4 or L-arginine were added after elution from the affinity column. Enzyme sample concentrations were determined on the basis of heme concentration, except in heme free preparations, where the flavin concentration was measured. UV-visible absorbance spectra were recorded on an Aminco DW-2000 spectrophotometer.
as §1

Experiment [2] addresses T1, eNOS (Bos taurus, UniProt P29473).
T1 construct: further column purification with gel filtration or anion exchange produces very pure full length NOS; made in house; host or cells: E. coli BL21 (pCWori+)
The experiment in a line: Griess assay of NO production by eNOS. The experiment is classed as biochemical, bovine. Particulars: for eNOS activity relative to eNOS activated by CaM alone: initial concentrations of NADPH and 2′AMP equal, presence of calcium/CaM. How it is done: as §1
Titration of eNOS with 2′AMP in the presence of ‘fully’ activating levels of Ca+2/CaM was performed using a Greiss assay (see, e.g., the Griess Reagent System, Promega Corporation, Madison, Wis.; and manufacturer's instructions for use). Calcium stoichometries were between two and four. The titration produced an additional activation corresponding to an apparent Kd of ˜1 mM. […] In the most widely used assay systems eNOS is 2-3 fold hyperactivated by 2′AMP (Greiss assay). Enhanced levels of cytochrome c reduction (2-5 fold) can also be observed in both eNOS and nNOS.
For orientation: The Griess reaction detects nitrite, a stable product of nitric oxide.

In experiment [3] the target is T2, eNOS (Bos taurus, UniProt P29473).
T2 construct: further column purification with gel filtration or anion exchange produces very pure full length NOS; made in house; host or cells: E. coli BL21 (pCWori+)
T2 sequence (P29473 1-1205): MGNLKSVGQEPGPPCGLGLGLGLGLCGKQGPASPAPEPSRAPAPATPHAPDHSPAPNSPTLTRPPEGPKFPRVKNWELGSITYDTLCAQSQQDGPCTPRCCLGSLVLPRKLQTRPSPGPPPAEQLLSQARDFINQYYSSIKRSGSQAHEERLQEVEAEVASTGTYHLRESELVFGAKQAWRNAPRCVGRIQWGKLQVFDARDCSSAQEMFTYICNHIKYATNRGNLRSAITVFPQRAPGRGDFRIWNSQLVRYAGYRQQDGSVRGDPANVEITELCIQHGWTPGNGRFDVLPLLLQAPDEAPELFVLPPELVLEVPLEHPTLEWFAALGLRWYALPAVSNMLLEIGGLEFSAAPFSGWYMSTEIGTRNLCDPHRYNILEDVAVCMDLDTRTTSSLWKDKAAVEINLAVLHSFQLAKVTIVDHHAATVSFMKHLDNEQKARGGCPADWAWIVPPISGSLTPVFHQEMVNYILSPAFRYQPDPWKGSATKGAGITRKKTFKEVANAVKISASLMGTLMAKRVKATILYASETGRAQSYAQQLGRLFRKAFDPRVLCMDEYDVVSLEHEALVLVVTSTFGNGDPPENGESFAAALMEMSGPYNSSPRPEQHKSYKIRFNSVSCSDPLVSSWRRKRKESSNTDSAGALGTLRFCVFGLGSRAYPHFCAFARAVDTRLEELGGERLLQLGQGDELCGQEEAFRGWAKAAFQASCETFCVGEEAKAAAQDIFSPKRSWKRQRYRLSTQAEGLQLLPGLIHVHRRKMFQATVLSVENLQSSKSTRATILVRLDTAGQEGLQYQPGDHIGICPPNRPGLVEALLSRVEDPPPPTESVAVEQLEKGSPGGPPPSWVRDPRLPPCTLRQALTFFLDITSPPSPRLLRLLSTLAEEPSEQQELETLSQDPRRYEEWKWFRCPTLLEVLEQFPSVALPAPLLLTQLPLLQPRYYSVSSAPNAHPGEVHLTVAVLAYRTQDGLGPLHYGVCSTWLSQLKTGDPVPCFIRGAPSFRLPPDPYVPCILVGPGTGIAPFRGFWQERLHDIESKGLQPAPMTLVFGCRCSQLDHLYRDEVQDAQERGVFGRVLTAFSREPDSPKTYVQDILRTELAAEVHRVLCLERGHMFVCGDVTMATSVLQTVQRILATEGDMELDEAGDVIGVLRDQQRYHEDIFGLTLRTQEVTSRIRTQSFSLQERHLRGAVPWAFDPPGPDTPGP
Description: NADPH-dependent cytochrome c reduction (electron transfer), eNOS. The experiment is classed as biochemical, bovine.

In experiment [4] the target is T3, nNOS (Rattus norvegicus, UniProt P29476).
T3 construct: further column purification with gel filtration or anion exchange produces very pure full length NOS; made in house; host or cells: E. coli BL21 (pCWori+)
T3 sequence (P29476 whole entry): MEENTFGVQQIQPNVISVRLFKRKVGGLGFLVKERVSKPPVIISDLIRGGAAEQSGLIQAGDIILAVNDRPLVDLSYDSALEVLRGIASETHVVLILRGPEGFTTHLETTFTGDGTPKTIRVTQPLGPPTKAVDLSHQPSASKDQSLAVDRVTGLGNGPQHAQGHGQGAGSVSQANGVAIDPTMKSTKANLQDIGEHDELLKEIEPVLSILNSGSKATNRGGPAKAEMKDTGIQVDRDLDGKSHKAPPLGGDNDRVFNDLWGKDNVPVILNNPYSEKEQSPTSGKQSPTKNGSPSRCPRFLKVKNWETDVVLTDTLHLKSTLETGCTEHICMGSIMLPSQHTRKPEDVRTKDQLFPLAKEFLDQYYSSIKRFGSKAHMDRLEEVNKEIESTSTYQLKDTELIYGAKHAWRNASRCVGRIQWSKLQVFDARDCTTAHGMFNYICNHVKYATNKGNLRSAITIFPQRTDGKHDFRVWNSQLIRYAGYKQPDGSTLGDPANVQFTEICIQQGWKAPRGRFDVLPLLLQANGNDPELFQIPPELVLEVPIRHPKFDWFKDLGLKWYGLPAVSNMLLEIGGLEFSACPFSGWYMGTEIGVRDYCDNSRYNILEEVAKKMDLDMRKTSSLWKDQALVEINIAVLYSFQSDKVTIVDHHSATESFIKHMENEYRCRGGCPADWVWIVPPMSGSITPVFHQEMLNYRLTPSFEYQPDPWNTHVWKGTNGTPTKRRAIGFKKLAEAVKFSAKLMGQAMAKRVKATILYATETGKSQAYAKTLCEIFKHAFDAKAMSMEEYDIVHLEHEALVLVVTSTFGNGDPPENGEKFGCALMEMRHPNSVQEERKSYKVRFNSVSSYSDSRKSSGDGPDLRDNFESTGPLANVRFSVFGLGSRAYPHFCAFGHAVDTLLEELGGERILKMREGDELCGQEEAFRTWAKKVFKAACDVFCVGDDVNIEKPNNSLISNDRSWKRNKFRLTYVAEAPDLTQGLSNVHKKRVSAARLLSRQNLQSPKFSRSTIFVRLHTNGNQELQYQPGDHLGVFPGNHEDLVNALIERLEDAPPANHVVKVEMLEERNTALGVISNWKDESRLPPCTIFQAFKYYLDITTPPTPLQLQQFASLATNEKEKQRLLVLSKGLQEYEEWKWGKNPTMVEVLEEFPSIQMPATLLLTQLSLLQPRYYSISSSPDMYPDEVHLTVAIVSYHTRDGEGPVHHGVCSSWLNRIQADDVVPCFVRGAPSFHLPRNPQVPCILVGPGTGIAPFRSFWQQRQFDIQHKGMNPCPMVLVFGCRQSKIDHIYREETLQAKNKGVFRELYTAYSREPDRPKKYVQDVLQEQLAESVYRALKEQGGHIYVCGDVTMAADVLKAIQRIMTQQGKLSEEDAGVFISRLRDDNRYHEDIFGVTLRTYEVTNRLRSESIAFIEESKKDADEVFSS
Description: NADPH-dependent cytochrome c reduction (electron transfer), nNOS. The experiment is classed as biochemical.

A further experiment deals with T4, iNOS (Mus musculus, UniProt P29477).
T4 construct: made in house; host or cells: E. coli
T4 sequence (P29477 1-1144): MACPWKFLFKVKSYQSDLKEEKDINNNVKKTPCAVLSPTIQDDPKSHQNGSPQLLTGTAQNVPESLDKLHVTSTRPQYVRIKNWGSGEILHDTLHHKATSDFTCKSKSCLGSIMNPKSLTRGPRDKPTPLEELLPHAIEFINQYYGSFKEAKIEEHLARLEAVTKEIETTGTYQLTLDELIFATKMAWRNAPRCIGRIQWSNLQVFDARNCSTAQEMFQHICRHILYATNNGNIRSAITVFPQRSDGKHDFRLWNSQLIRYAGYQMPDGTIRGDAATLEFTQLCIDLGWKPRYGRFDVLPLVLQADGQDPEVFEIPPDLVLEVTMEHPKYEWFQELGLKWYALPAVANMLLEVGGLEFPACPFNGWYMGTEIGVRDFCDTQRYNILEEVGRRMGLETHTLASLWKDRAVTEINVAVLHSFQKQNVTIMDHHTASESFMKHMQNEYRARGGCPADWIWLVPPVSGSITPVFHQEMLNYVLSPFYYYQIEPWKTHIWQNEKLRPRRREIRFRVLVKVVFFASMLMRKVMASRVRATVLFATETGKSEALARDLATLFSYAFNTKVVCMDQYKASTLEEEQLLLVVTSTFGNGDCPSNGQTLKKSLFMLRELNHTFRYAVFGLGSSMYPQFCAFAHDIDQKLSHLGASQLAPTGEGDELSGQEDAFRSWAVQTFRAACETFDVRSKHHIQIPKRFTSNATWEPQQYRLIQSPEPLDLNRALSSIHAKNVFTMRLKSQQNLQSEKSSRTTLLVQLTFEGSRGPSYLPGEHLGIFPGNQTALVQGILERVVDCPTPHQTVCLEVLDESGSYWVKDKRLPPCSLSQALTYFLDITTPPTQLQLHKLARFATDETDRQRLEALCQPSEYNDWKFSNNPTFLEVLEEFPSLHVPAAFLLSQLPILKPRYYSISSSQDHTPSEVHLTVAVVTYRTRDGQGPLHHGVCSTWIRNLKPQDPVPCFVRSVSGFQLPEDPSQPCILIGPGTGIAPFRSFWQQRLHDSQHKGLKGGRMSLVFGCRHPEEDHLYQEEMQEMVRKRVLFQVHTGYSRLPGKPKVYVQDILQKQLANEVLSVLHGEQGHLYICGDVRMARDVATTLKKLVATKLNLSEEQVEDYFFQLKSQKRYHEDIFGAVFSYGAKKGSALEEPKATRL
Description: Effect of NADPH analogs on iNOS electron transfer. In kind it is biochemical, murine. The note with it: Tris buffer, absence of calmodulin.

[5] abbreviates: comparison of nucleotide ligands.

“Also recorded” adds a separate entry of the source. Read-outs that look alike come from different tables or passages of the source.

For `Nc1ncnc2c1ncn2[C@@H]1O[C@@H]2COP(=O)(O)O[C@H]2[C@H]1O` [Cyclic AMP], the “function as NOS activator” value in the experiment on cNOS is on record as “did not function as activators”. With `Nc1ncnc2c1ncn2[C@@H]1O[C@H](COP(=O)(O)O)[C@@H](OP(=O)(O)O)[C@H]1O` [3′5′ ADP], the “function as NOS activator” value in the experiment with cNOS (setting [5]) was “only a very weak activator”. Still for that read-out and setting: the entry for `Nc1nc2c(ncn2[C@@H]2O[C@H](COP(=O)(O)OP(=O)(O)O)[C@@H](O)[C@H]2O)c(=O)[nH]1` [GDP] is “did not function as activators”. Consider “G1074Y mutant: rat nNOS small insertion mutant, Gly 1074 replaced by Tyr”, for which the Nitrite production with nNOS [1] came to 186.2 nmoles/min/mg NOS.

For “wild-type nNOS: wild type rat neuronal nitric oxide synthase expressed in E. coli”, the Nitrite production in the experiment with nNOS [1] was 292.2 nmoles/min/mg NOS. In the case of “G1074D mutant: rat nNOS small insertion mutant, Gly 1074 replaced by Asp”, the Nitrite production in the experiment with nNOS [1] turned out to be 179.8 nmoles/min/mg NOS. Regarding `Nc1ncnc2c1ncn2[C@@H]1O[C@H](CO)[C@@H](O)[C@H]1OP(=O)(O)O` [2′AMP], the “hyperactivation of eNOS” value on eNOS [2] (Good's buffer systems (e.g., HEPES or MOPS), with Ca+2/CaM) was 2-3 fold; on eNOS [2] (most widely used assay systems, Greiss assay) it was 2-3 fold. Further, the results for the “eNOS activity relative to eNOS activated by CaM alone” value on eNOS [2] and on eNOS [2] (listed as 2′ AMP) were 2-3 times and 3-5 times, respectively. Also, the Kd on eNOS [2] (titration of eNOS in the presence of 'fully' activating levels of Ca+2/CaM, plate reader Greiss assay, read-out: apparent Kd of additional activation) is roughly 1 mM. The “enhanced level (activation) of cytochrome c reduction” value on eNOS [3] (eNOS) and at nNOS [4] (nNOS) was 2-5 fold throughout. The “activation of cNOS in the absence of calmodulin” value in the experiment with cNOS (absence of calmodulin, particularly in Tris buffer) is “activated cNOS in the absence of calmodulin”. Regarding `Nc1nc2c(ncn2[C@@H]2O[C@@H]3COP(=O)(O)O[C@H]3[C@H]2O)c(=O)[nH]1` [cyclic GMP], in the experiment on cNOS (setting [5]), the “function as NOS activator” value is “did not function as activators”. `Nc1nc2c(ncn2[C@@H]2O[C@H](COP(=O)(O)OP(=O)(O)OP(=O)(O)O)[C@@H](O)[C@H]2O)c(=O)[nH]1` [GTP]: the “function as NOS activator” value with cNOS (setting [5]) is reported as “did not function as activators”. Turning to `Nc1ncnc2c1ncn2[C@@H]1O[C@H](COP(=O)(O)OP(=O)(O)OP(=O)(O)O)[C@@H](O)[C@H]1O` [ATP], the “activation of electron transfer by ATP” value is “activation of electron transfer” at eNOS [3] (wild type eNOS, Tris buffer, absence of calmodulin) and “activation of electron transfer” at nNOS [4] (wild type nNOS, Tris buffer, absence of calmodulin). For the same compound, the “inhibition of iNOS” value against iNOS was “INOS is inhibited; also recorded: inhibition of INOS”.

Values taken from US20050054615A1, “Calmodulin independent activation of nitric oxide synthase” (Rensselaer Polytechnic Institute, priority 2002, published 2005).
